Measured values as given in patent publication US20050042244A1, “Method of controlling acarian and device for use in the same” (KURARAY CO LTD, priority 2002, published 2005).

Assays:
[1] = tested on: Dermatophagoides pteronyssinus; experiment: Repellence test method (invasion preventive method); format: in vivo; conditions: 1.0 g/m^2; for number of Acarina, 1 day later: untreated control 65; for number of Acarina, 2 days later: untreated control 132; for number of Acarina, 3 days later: untreated control 140
Method: The repellence rates of the isomer of farnesylacetone and phytone under 1.0 g/m^2 conditions for a kind of Dermatophagoides pteronyssinus were determined by the repellence test method (invasion preventive method: “Processing Technique” vol. 33, No. 2, pp. 153-155 (1998) “titled: Acarina repellent-processed product repellence test basic manual” (Apareru Seihin-tou Hinshitsu Seinou Taisaku Kyougikai). The results are shown in Table 1 below. […]

[2] = Measurement of farnesylacetone concentration in the air (gas chromatography, FID, absolute calibration); format: physicochemical; conditions: for farnesylacetone concentration in gas of sample bottle: 1 hr
Method: measurement of farnesylacetone concentration in the air
Farnesylacetone (1 mL) was placed in a 50 mL sample bottle, and a large magnetic stirring bar capable of rotating the air as well was placed therein. The bottle was placed neck-deep in an oil bath at 130° C. with rotation, and heated for 1 hr to saturate the inside of the sample bottle with farnesylacetone vapor. Thereafter, the gas in the sample bottle was taken by 5 mL with a gas tight syringe, and using gas chromatography with an FID detector, the concentration of farnesylacetone was measured by the absolute calibration method.
Farnesylacetone (1 mL) was placed in a 50 mL sample bottle, and a large magnetic stirring bar capable of rotating the air as well was placed therein. The bottle was placed neck-deep in a water bath at 60° C. with rotation, and heated for 1 hr to fill the inside of the sample bottle with farnesylacetone vapor. Thereafter, the gas in the sample bottle was taken by 5 mL with a gas tight syringe, and using gas chromatography with an FID detector, the concentration of farnesylacetone was measured by an absolute calibration method. […] Almost simultaneously, the gas (5 mL) in the sample bottle was taken again, a propeller was set in a 10 L beaker, the gas was added into the sealed beaker, the air in the beaker was stirred with the propeller for 10 min to dilute the gas 2,000-fold, whereby gas containing 0.01 μg/L farnesylacetone was obtained. The diluted gas (200 mL) was sampled with a syringe, a propeller was set in a 2 L flask, the gas was added into the sealed flask, the air in the beaker was stirred with the propeller for 10 min to further dilute the gas 10-fold, whereby gas containing 0.001 μg/L farnesylacetone was obtained.

human = experiment: Odor and effect on human of sampled gas containing farnesylacetone; conditions: gas containing 20,000 μg/L farnesylacetone
Method: Farnesylacetone (1 mL) was placed in a 50 mL sample bottle, and a large magnetic stirring bar capable of rotating the air as well was placed therein. The bottle was placed neck-deep in a water bath at 60° C. with rotation, and heated for 1 hr to fill the inside of the sample bottle with farnesylacetone vapor. Thereafter, the gas in the sample bottle was taken by 5 mL with a gas tight syringe, and using gas chromatography with an FID detector, the concentration of farnesylacetone was measured by an absolute calibration method. […] Almost simultaneously, the gas (5 mL) in the sample bottle was taken again, a propeller was set in a 10 L beaker, the gas was added into the sealed beaker, the air in the beaker was stirred with the propeller for 10 min to dilute the gas 2,000-fold, whereby gas containing 0.01 μg/L farnesylacetone was obtained. […]

Acarina = experiment: Repellence test with supplied gas containing 0.001 μg/L farnesylacetone in modified glass plate test apparatus; format: in vivo; conditions: gas containing 0.001 μg/L farnesylacetone at 1 mL/min; 37±1° C., 75±5% Rh; 4 hr
Method: A 2L flask containing the gas containing 0.001 μg/L farnesylacetone prepared in the same manner as in Reference Example 1 was equipped with a Teflon® tube (inner diameter 2 mm) for discharging the gas containing farnesylacetone and a Teflon® tube for charging water into the container using a metering pump, whereby an apparatus to send out (supply) the gas containing farnesylacetone at 1 mL/min by introducing water into the flask at 1 mL/min was manufactured. […]
Then the test apparatus was placed in a room with constant temperature and humidity at 37±1° C., 75±5% Rh, and the apparatus was operated for 3 hr for filling the test section with the above-mentioned concentration of farnesylacetone, after which an Acarina medium containing 10000 live Acarina were inserted from the gap of the lid and left standing for 4 hr. Then, the number of Acarina that invaded into the feed for attraction in each part C of the test section side and the control section side was counted. […] The number of Acarina floating in the upper layer was counted. The repellence rate was determined by the following formula and found to be 80%. […]

Dermatophagoides farinae = experiment: Acarina repellence test by improved invasion prevention method (coated lid, vapor); format: in vivo; conditions: 25° C., 1 day
Method: The invasion prevention method was modified and a repellence test was performed.
As a lid to cover this box (4, 4′), two glass plates (length 5.5 cm, width 6 cm, thickness 1.3 mm) were prepared.
An ethanol solution of farnesylacetone (1%, 100 mg) was coated on the surface of one (test section side) of the two lids to cover the test box, and ethanol was air dried for 10 min. Then, a sample for Acarina attraction (50 mg) each was placed on both ends of the test box in the longitudinal direction, and the above-mentioned farnesylacetone-coated lid (4′) alone was placed, such that the surface coated with farnesylacetone faced the inside of the box. The box was placed in an incubator at 37° C. for 60 min until the farnesylacetone vapor filled the test section side of the test box. […] Thereafter, the test container was taken out, the number of Acarina that invaded into the feeds in the test section side and the control section side (50 and 1100, respectively, the rest of the Acarina fled) was counted. The repellence rate was determined by the following formula and found to be 95%. The concentration of farnesylacetone filled in the air at 37° C. was measured in the same manner as in Reference Example 1 and assumed to be 5 μg/L. Repellence rate (%)=(1− number of Acarina that invaded the test section/number of Acarina that invaded the control section)×100 […]

[3] = tested on: Dermatophagoides pteronyssinus; experiment: Acarina repellence test by improved glass tube method; format: in vivo; conditions: filter paper that absorbed farnesylacetone (0.1 g); 37±1° C., 75±5% Rh, 48 hr; gas concentration 5 μg/L
Source text: The “glass tube method” known as one of the repellence tests for Acarina repellent-processed fibers was modified and used for a repellence test.
In the L-shaped glass tube in the test section was fixed filter paper with a two-sided tape inside the glass tube at part D, a test sample (filter paper that absorbed farnesylacetone (0.1 g)) was placed, and the glass tube opening on the D side was sealed with an airtight PARAFILM. Then, a medium containing 10,000 live Acarina (Dermatophagoides pteronyssinus) were placed in part A of the L-shaped glass Lube, and the glass end on the A side was sealed with a high density fabric capable of preventing passage of Acarina while maintaining air permeability. This test apparatus was stood still in a container maintained at 37±1° C., 75±5% Rh for 48 hr. […] The farnesylacetone concentration of the gas in part D was measured by gas chromatography. […]
Subsequently, the feed for attraction in part C was taken out, and the number of Acarina that invaded into the feed for attraction was counted by the following method. […] The number of Acarina floating in the upper layer was counted. […] The repellence rate of the test sample was determined by the following formula and found to be 98%. […]

CC(=O)CCCC(C)CCCC(C)CCCC(C)C (stereo not drawn) [phytone]
repellence rate, 1 day later [1]: 89.2%
repellence rate, 2 days later [1]: 90.9%
repellence rate, 3 days later [1]: 83.6%
number of Acarina, 1 day later [1]: 7 Acarina
number of Acarina, 2 days later [1]: 12 Acarina
number of Acarina, 3 days later [1]: 23 Acarina

CC(=O)CCC=C(C)CCC=C(C)CCC=C(C)C [cis-cis rich farnesylacetone, farnesylacetone]
repellence rate, 1 day later [1]: 92.3%
repellence rate, 2 days later [1]: 88.6%
repellence rate, 3 days later [1]: 79.3%
number of Acarina, 1 day later [1]: 5 Acarina
number of Acarina, 2 days later [1]: 15 Acarina
number of Acarina, 3 days later [1]: 29 Acarina

CC(=O)CC/C=C(\C)CC/C=C(\C)CCC=C(C)C [farnesylacetone]
farnesylacetone concentration in gas of sample bottle ([2]; 60° C. water bath): 20 µg/L
farnesylacetone concentration in gas of sample bottle ([2]; 130° C. oil bath, saturated vapor): 20,000 μg/L
farnesylacetone concentration of the gas in part D ([2]; L-shaped glass tube of Example 1, after 48 hr at 37±1° C.): ~5 µg/L
concentration of farnesylacetone filled in the air ([2]; at 37° C., test box of Example 2): ~5 ng/mL
odor and effect of sampled gas on human (human): had a strong odor, caused cough when inhaled in a large amount, and provoked uncomfortable feeling in human
Repellence rate (Acarina): 80%
number of Acarina that invaded into the feed in the test section side (Dermatophagoides farinae; 50,000 released, control section side 1100): 50
Repellence rate (Dermatophagoides farinae; lid coated with 1% ethanol solution (100 mg), vapor only, 5 μg/L): 95%
Repellence rate [3]: 98%

CC(=O)CCC=C(C)CCC=C(C)CCC=C(C)C [trans-trans farnesylacetone, farnesylacetone]
repellence rate, 1 day later [1]: 87.7%
repellence rate, 2 days later [1]: 90.2%
repellence rate, 3 days later [1]: 82.9%
number of Acarina, 1 day later [1]: 8 Acarina
number of Acarina, 2 days later [1]: 13 Acarina
number of Acarina, 3 days later [1]: 24 Acarina
